Results taken from patent US9006241B2, “Pyrimidine derivatives” (Noviga Research AB, priority 2011, dated 2015).

How the values were obtained:
Type in all cases: cell-based
A2780 (ovarian cancer) = test: FMCA, A2780; details: Homo sapiens, A2780 ovarian cancer cells
Text: (§1) The Fluorometric Microculture Cytotoxicity Assay, FMCA (Larsson, R., et al.; Anticancer Res, 1989, 9, 1111-1119), is a three day non-clonogenic microplate-based cell viability assay used for measurement of the cytotoxic and/or cytostatic effect of compounds in vitro (Lindhagen, E. et al.; Nat. Protoc., 2008, 3, 1364-1369). FMCA represents a valuable method to measure cytotoxicity in a number of cell types, both cell lines and primary cells from patients (Larsson, R., et al.; Int. J. Cancer, 1992, 50, 177-185; Fridborg, H., et al.; Eur. J. Cancer, 1999. 35, 424-432; Dhar, S., et al.; Br. J. Cancer, 1996, 74, 888-896).
(§2) FMCA is based on the principle that fluorescein diacetate (FDA) is converted to the fluorescent probe fluorescein by esterases in the plasma membranes of living cells. For experiments, 96 or 384-well microplates are prepared with compounds and stored at −70° C. until use. Cells are then seeded into the drug-prepared plates and placed in an incubator for 72 h. On the last day of incubation, the plates are washed and a buffer containing FDA is added and incubated with the cells for 45 minutes. Finally the fluorescence per well is measured in a fluorometer and a Survival Index % (SI) for each compound-treated well is calculated with the equation: Compound-treated cells minus blank divided by control cells minus blank. A high SI-value indicates a large percentage of living cells and vice versa.
(§3) For dose-response experiments, 384-well plates were prepared as follows:
(§4) Compounds of the invention as well comparative kinase inhibitors sorafenib sunitinib, dasatinib, pazopanib and a reference compound disclosed in WO 2009/071535 (compound #107) were diluted with PBS to a concentration ten-times higher than the desired starting concentration. Then, a Biomek 2000 liquid handling system was employed to serially dilute the compounds in a deep-well 384-well plate. From this plate, assay plates containing 5 μl compound per well were prepared with the Biomek 2000. Certain compounds precipitated when diluted with PBS, and these compounds were therefore prepared in a 96-well plate manually as described above using culture medium RPMI 1640 instead of PBS.
(§5) The compounds were also tested at five concentrations, with five times serial dilution on the following cell types: CCRF-CEM, hTERT-RPE1 (normal retinal epithelial cells), hRPTEpiC (normal renal cells), and peripheral blood mononuclear cells (PBMC). Each experiment was performed three times, except for PBMC and hRPTEpiC, which were performed twice. SI-values were calculated, graphs were plotted using GraphPadPrism 5.0 (GraphPad Software Inc. La Jolla, Calif.) and IC50-values for each cell type and compound were determined from the curves.
(§6) The compounds of the invention were also tested on further cancer cell lines related to breast cancer (MDA-MB-231; see e.g. Cailleau, R., et al.; J. Natl. Cancer Inst., 1974, 53, 661-674), teniposide-resistant leukemia (CEM/VM1 see e.g. Danks, M., et al.; Cancer Res., 1987, 47, 1297-1301), leukemia (HL-60; see e.g. Collins, S., et al.; Nature, 1977, 270, 347-349), doxorubicin-resistant lung cancer (H69AR; see e.g. Mirski, S., et al.; Cancer Res., 1987, 47, 2594-2598), myeloma (RPMI 8226; see e.g. Matsuoka, Y., et al.; Proc. Soc. Exp. Biol. Med., 1967, 125, 1246-1250), doxorubicin-resistant myeloma (8226/Dox40; see e.g. Dalton, W., et al.; Blood, 1989, 15, 747-752), lymphoma (U-937, see e.g. Sundström, C., et al.; Int. J. Cancer, 1976, 17, 565-577), vincristin-resistant lymphoma (U-937-vcr; see e.g. Botling, J., et al.; Int. J. Cancer, 1994, 58, 269-274), ovarian cancer (A2780; see e.g. Hamilton, T., et al.; Semin. Oncol., 1984, 11, 285-298), doxorubicin-resistant ovarian cancer (A2780/Adr), cisplatin-resistant ovarian cancer (A2780/Cis; see e.g. Behrens, B., et al. Cancer Res. 1987, 47, 414-418), pancreatic cancer (PANC-1, BxPC-3, and MIA PaCa-2; see e.g. Lieber, M., et al.; Int. J. Cancer, 1975, 15, 741-747; Loor, R., et al.; Clin. Lab. […]

HL-60 (leukemia) = test: FMCA, HL-60; details: Homo sapiens, HL-60 leukemia cells
Text: as §1, §2, §3, §4, §5
(§7) The compounds of the invention were also tested on further cancer cell lines related to breast cancer (MDA-MB-231; see e.g. Cailleau, R., et al.; J. Natl. Cancer Inst., 1974, 53, 661-674), teniposide-resistant leukemia (CEM/VM1 see e.g. Danks, M., et al.; Cancer Res., 1987, 47, 1297-1301), leukemia (HL-60; see e.g. Collins, S., et al.; Nature, 1977, 270, 347-349), doxorubicin-resistant lung cancer (H69AR; see e.g. Mirski, S., et al.; Cancer Res., 1987, 47, 2594-2598), myeloma (RPMI 8226; see e.g. Matsuoka, Y., et al.; Proc. Soc. Exp. Biol. Med., 1967, 125, 1246-1250), doxorubicin-resistant myeloma (8226/Dox40; see e.g. Dalton, W., et al.; Blood, 1989, 15, 747-752), lymphoma (U-937, see e.g. Sundström, C., et al.; Int. […]

[1] = tested on: H69AR (doxorubicin-resistant lung cancer); test: FMCA, H69AR; details: Homo sapiens, H69AR doxorubicin-resistant lung cancer cells
Text: as §1, §2, §3, §4, §5, §6

[2] = tested on: U-937-vcr (vincristin-resistant lymphoma); test: FMCA, U-937-vcr; details: U-937-vcr vincristin-resistant lymphoma cells
Text: as §1, §2, §3, §4, §5, §6

[3] = tested on: MIA PaCa-2 (pancreatic cancer); test: FMCA, MIA PaCa-2; details: Homo sapiens, MIA PaCa-2 pancreatic cancer cells
Text: as §1, §2, §3, §4, §5, §7

U-937 (lymphoma) = test: FMCA, U-937; details: Homo sapiens, U-937 lymphoma cells
Text: as §1, §2, §3, §4, §5, §6

[4] = tested on: CCRF-CEM cancer cells - leukemia; test: Fluorometric Microculture Cytotoxicity Assay (FMCA), CCRF-CEM; details: Homo sapiens, 72 h incubation
Text: as §1, §2
In subsequent experiments, compounds were tested, along with a number of approved cancer drugs (dasatinib, pazopanib, sorafenib, and sunitinib) as described above. Initially, the acute lymphoblastic leukemia cell line CCRF-CEM was used throughout. In the assay plates, medium was added to six empty wells (blank wells) and wells were filled with PBS and cell suspension and served as control wells. SI-values were then calculated for each compound-treated well as described above. All experiments were conducted twice and a new batch of plates was prepared for each experiment.
as §3, §4, §5

[5] = tested on: PANC-1 (pancreatic cancer); test: FMCA, PANC-1; details: Homo sapiens, PANC-1 pancreatic cancer cells
Text: as §1, §2, §3, §4, §5, §7

RPMI 8226 (myeloma) = test: FMCA, RPMI 8226; details: Homo sapiens, RPMI 8226 myeloma cells
Text: as §1, §2, §3, §4, §5, §6

[6] = tested on: A2780/Cis (cisplatin-resistant ovarian cancer); test: FMCA, A2780/Cis; details: A2780cis, A2780/Cis cisplatin-resistant ovarian cancer cells
Text: as §1, §2, §3, §4, §5, §6

[7] = tested on: BxPC-3 (pancreatic cancer); test: FMCA, BxPC-3; details: Homo sapiens, BxPC-3 pancreatic cancer cells
Text: as §1, §2, §3, §4, §5, §7

[8] = tested on: 8226/Dox40 (doxorubicin-resistant myeloma); test: FMCA, 8226/Dox40; details: 8226/Dox40 doxorubicin-resistant myeloma cells
Text: as §1, §2, §3, §4, §5, §6

[9] = tested on: MDA-MB-231 (breast cancer); test: FMCA, MDA-MB-231; details: Homo sapiens, MDA-MB-231 breast cancer cells
Text: as §1, §2, §3, §4, §5, §7

[10] = tested on: CEM/VM1 (teniposide-resistant leukemia); test: FMCA, CEM/VM1; details: Homo sapiens, CEM/VM1 teniposide-resistant leukemia cells
Text: as §1, §2, §3, §4, §5, §6

[11] = tested on: A2780/Adr (doxorubicin-resistant ovarian cancer); test: FMCA, A2780/Adr; details: A2780/Adr doxorubicin-resistant ovarian cancer cells
Text: as §1, §2, §3, §4, §5, §6

PC-3 (prostate cancer) = test: FMCA, PC-3; details: PC-3 prostate cancer cells
Text: as §1, §2, §3, §4, §5, §7

| SMILES | EC50 (A2780 (ovarian cancer)) | EC50 (HL-60 (leukemia)) | EC50 [1] | EC50 [2] | EC50 [3] | EC50 (U-937 (lymphoma)) | EC50 [4] | EC50 [5] | EC50 (RPMI 8226 (myeloma)) | EC50 [6] | EC50 [7] | EC50 [8] | EC50 [9] | EC50 [10] | EC50 [11] | EC50 (PC-3 (prostate cancer)) |
| --- | --- | --- | --- | --- | --- | --- | --- | --- | --- | --- | --- | --- | --- | --- | --- | --- |
| COc1ccc2[nH]cc(CCNc3nccc(Nc4ccc5[nH]c(C)cc5c4)n3)c2c1 [Example 4, N^2-[2-(5-methoxy-1H-indol-3-yl)ethyl]-N^4-(2-methyl-1H-indol-5-yl)pyrimidine-2,4-diamine] | 33 nM | 9.1 nM | 23 nM | 28 nM | 14 nM | 13 nM | 28 nM | 1600 nM | 45 nM | 25 nM | 37 nM | 110 nM | 100 nM | 6.6 nM | 140 nM | 240 nM |
| CCOc1ccc2[nH]cc(CCNc3nccc(Nc4ccc5[nH]c(C)cc5c4)n3)c2c1 [Example 5, N^2-[2-(5-ethoxy-1H-indol-3-yl)ethyl]-N^4-(2-methyl-1H-indol-5-yl)pyrimidine-2,4-diamine] | 51 nM | 8.2 nM | 94 nM | 20 nM | 18 nM | 22 nM | 15 nM | 430 nM | 42 nM | 33 nM | 55 nM | 160 nM | 57 nM | 17 nM | 180 nM | 150 nM |
| Cc1ccc2[nH]cc(CCNc3nccc(Nc4ccc5[nH]c(C)cc5c4)n3)c2c1 [Example 9, N^2-[2-(5-methyl-1H-indol-3-yl)ethyl]-N^4-(2-methyl-1H-indol-5-yl)pyrimidine-2,4-diamine] | 210 nM |  | 170 nM | 46 nM |  | 80 nM | 38 nM |  | 170 nM | 200 nM |  | 200 nM |  | 64 nM | 820 nM |  |
| COc1ccc2[nH]cc(CCNc3nccc(Nc4ccc5c(c4)cc(C)n5C)n3)c2c1 [Example 13, N^4-(1,2-dimethyl-1H-indol-5-yl)-N^2-[2-(5-methoxy-1H-indol-3-yl)ethyl]pyrimidine-2,4-diamine] | 64 nM | 20 nM | 120 nM | 29 nM | 54 nM | 30 nM | 19 nM | 860 nM | 120 nM | 73 nM | 130 nM | 180 nM | 380 nM | 38 nM | 330 nM | 380 nM |
| COc1ccc2[nH]cc(CCNc3nccc(Nc4ccc5[nH]c(C)c(C)c5c4)n3)c2c1 [Example 14, N^4-(2,3-dimethyl-1H-indol-5-yl)-N^2-[2-(5-methoxy-1H-indol-3-yl)ethyl]pyrimidine-2,4-diamine] | 110 nM |  | 200 nM | 44 nM |  | 73 nM | 21 nM |  | 210 nM | 63 nM |  | 280 nM |  | 51 nM | 440 nM |  |
| COc1ccc2[nH]cc(CCNc3nccc(Nc4ccc5[nH]c(CO)cc5c4)n3)c2c1 [Example 15, (5-{2-[2-(5-methoxy-1H-indol-3-yl)ethylamino]pyrimidin-4-ylamino}-1H-indol-2-yl)methanol] | 55 nM | 31 nM | 120 nM | 69 nM | 58 nM | 37 nM | 27 nM | 1400 nM | 1400 nM | 96 nM | 120 nM | 4300 nM | 150 nM | 71 nM | 980 nM | 310 nM |
| COc1ccc2[nH]cc(CCNc3nccc(Nc4ccc5[nH]c(C)nc5c4)n3)c2c1 [Example 19, N^2-[2-(5-methoxy-1H-indol-3-yl)ethyl]-N^4-(2-methyl-1H-benzo[d]imidazol-5-yl)pyrimidine-2,4-diamine] | 130 nM | 92 nM | 940 nM | 780 nM | 31 nM | 100 nM | 32 nM | 5200 nM | 7800 nM | 230 nM | 910 nM | 30000 nM | 1900 nM | 62 nM | 2000 nM | 2100 nM |
| COc1ccc2[nH]cc(CCNc3nc(C)cc(Nc4ccc5[nH]c(C)cc5c4)n3)c2c1 [Example 27, N^2-[2-(5-methoxy-1H-indol-3-yl)ethyl]-6-methyl-N^4-(2-methyl-1H-indol-5-yl)pyrimidine-2,4-diamine] | 74 nM |  | 63 nM | 62 nM |  | 41 nM | 19 nM |  | 110 nM | 62 nM |  | 300 nM |  | 44 nM | 440 nM |  |
